From PMC9367672, “In vitro differences in toddalolactone metabolism in various species and its effect on cytochrome P450 expression” (Pharmaceutical Biology, 2022)

Assays:
HLMs = experiment: Chemical inhibition assay: formation of P4 from toddalolactone in HLMs; assay type: in vitro ADME, human; details: HLMs with toddalolactone and NADPH-generating system; ketoconazole 1 μM, clobetasol propionate 1.8 μM, quinidine 10 μM; vs no inhibitor
Method: All incubation assays were completed in triplicate. The data are presented as mean ± standard deviation (SD).
Specific inhibitors for P450 isoforms were used to explore the contribution of CYP isoforms to the biotransformation of toddalolactone. […] In brief, toddalolactone was incubated with HLMs and an NADPH-generating system in the presence and absence (control) of the aforementioned specific inhibitors.

CYP3A5 = CYP3A5 (Homo sapiens, UniProt P20815); parameters: purchased Corning Life Sciences (Corning, MA); host or cells: Saccharomyces cerevisiae; method as in Wright et al. [2020]; details: at 1.8 μM; ref Wright et al. [2020]; cited from earlier work
[1] = substrate: COc1cc2oc(=O)ccc2c(OC)c1C[C@@H](O)C(C)(C)O; experiment: cells, lysate or membranes named; details: P4 formation, toddalolactone 1–200 μM, pH 7.4, 37.0 °C
Method: The CYP reaction system (200 μL) consisted of 0.1 M potassium phosphate buffer (pH 7.4), an NADPH-generating system (1 mM NADPH, 10 mM G-6-P, 1 unit/mL G-6-PD, 4 mM MgCl2), and liver microsomes or recombinant human microsomes (supersomes). Each of the in vitro enzymatic assays using liver microsomes was linear with respect to incubation time and amount of protein. After a pre-incubation at 37 °C for 3 min, the reactions were initiated by adding NADP^+. After incubating for 60 min, the reactions were quenched by adding 200 μL of ice-cold acetonitrile. Samples were centrifuged at 18,000 g for 15 min at 4 °C and 10 μL of supernatant was analyzed using an HPLC system. NADPH or CYP enzyme sources were not used in the control group to ensure that the metabolic reactions were CYP- and NADPH-dependent. All incubation assays were completed in triplicate. The data are presented as mean ± standard deviation (SD).
The enzyme kinetics of toddalolactone in oxidative metabolism and glucuronidation were determined by incubating liver microsomes (0.2 mg/mL) or CYPs (15 nM) with different concentrations of toddalolactone (1–200 μM). […] The in vitro intrinsic clearance (CLint) was calculated based on the Vmax/Km ratio. Metabolites were quantified using the standard curve for toddalolactone because of the absence of metabolite standards. […]

Molecule: CCC(=O)O[C@]1(C(=O)CCl)[C@@H](C)C[C@H]2[C@@H]3CCC4=CC(=O)C=C[C@]4(C)[C@@]3(F)[C@@H](O)C[C@@]21C [clobetasol propionate]
- inhibition of formation of P4 (HLMs): ~40%
- inhibition of CYP3A5 (CYP3A5): 90%

B1: CYP3A5 (Homo sapiens) (protein)
chain: MDLIPNLAVETWLLLAVSLVLLYLYGTRTHGLFKRLGIPGPTPLPLLGNVLSYRQGLWKFDTECYKKYGKMWGTYEGQLPVLAITDPDVIRTVLVKECYSVFTNRRSLGPVGFMKSAISLAEDEEWKRIRSLLSPTFTSGKLKEMFPIIAQYGDVLVRNLRREAEKGKPVTLKDIFGAYSMDVITGTSFGVNIDSLNNPQDPFVESTKKFLKFGFLDPLFLSIILFPFLTPVFEALNVSLFPKDTINFLSKSVNRMKKSRLNDKQKHRLDFLQLMIDSQNSKETESHKALSDLELAAQSIIFIFAGYETTSSVLSFTLYELATHPDVQQKLQKEIDAVLPNKAPPTYDAVVQMEYLDMVVNETLRLFPVAIRLERTCKKDVEINGVFIPKGSMVVIPTYALHHDPKYWTEPEEFRPERFSKKKDSIDPYIYTPFGTGPRNCIGMRFALMNMKLALIRVLQNFSFKPCKETQIPLKLDTQGLLQPEKPIVLKVDSRDGTLSGE
- kcat ([1]; other: recombinant CYP3A5 (15 nM)): 0.68 ± 0.04 pmol/min/nmol CYP

B2: CYP1A1 (Homo sapiens) (protein)
chain: MLFPISMSATEFLLASVIFCLVFWVIRASRPQVPKGLKNPPGPWGWPLIGHMLTLGKNPHLALSRMSQQYGDVLQIRIGSTPVVVLSGLDTIRQALVRQGDDFKGRPDLYTFTLISNGQSMSFSPDSGPVWAARRRLAQNGLKSFSIASDPASSTSCYLEEHVSKEAEVLISTLQELMAGPGHFNPYRYVVVSVTNVICAICFGRRYDHNHQELLSLVNLNNNFGEVVGSGNPADFIPILRYLPNPSLNAFKDLNEKFYSFMQKMVKEHYKTFEKGHIRDITDSLIEHCQEKQLDENANVQLSDEKIINIVLDLFGAGFDTVTTAISWSLMYLVMNPRVQRKIQEELDTVIGRSRRPRLSDRSHLPYMEAFILETFRHSSFVPFTIPHSTTRDTSLKGFYIPKGRCVFVNQWQINHDQKLWVNPSEFLPERFLTPDGAIDKVLSEKVIIFGMGKRKCIGETIARWEVFLFLAILLQRVEFSVPLGVKVDMTPIYGLTMKHACCEHFQMQLRS
- kcat ([1]; other: recombinant CYP1A1 (15 nM)): 0.76 ± 0.03 pmol/min/nmol CYP
